Legend:
Squalene synthase = target: T1, Squalene synthase (Rattus norvegicus, UniProt Q02769); assay: In vitro inhibitory activity measured against rat squalene synthase(SQS) enzyme
T1 sequence (Q02769 whole entry): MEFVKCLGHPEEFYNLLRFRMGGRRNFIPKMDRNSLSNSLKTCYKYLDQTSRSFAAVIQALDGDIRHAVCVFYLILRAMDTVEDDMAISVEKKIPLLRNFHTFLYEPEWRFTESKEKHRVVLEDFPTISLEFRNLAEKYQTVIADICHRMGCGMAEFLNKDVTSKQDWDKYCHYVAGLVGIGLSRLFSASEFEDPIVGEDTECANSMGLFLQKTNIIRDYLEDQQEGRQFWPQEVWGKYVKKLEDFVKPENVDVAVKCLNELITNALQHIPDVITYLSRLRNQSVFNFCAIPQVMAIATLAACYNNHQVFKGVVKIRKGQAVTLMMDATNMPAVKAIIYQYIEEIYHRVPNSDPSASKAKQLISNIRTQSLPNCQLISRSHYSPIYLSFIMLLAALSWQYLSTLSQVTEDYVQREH

Rattus norvegicus = species on record: Rattus norvegicus; assay: Inhibitory activity of compound was measured against cholesterol biosynthesis from [14C]- acetate by isolated rat hepatocytes; format: functional; settings: Hepatocyte

SMILES	IC50 (Squalene synthase) [nM]	IC50 (Rattus norvegicus) [nM]
C=C(CC[C@]12O[C@H](C(=O)O)[C@@](O)(C(=O)OC)[C@](C(=O)O)(O1)[C@H](O)[C@H]2O)[C@@H](OC(C)=O)[C@H](C)Cc1ccccc1	355	–
C=C(CC[C@]12O[C@H](C(=O)O)[C@@](O)(C(=O)O)[C@](C(=O)OC)(O1)[C@H](OC(=O)/C=C/[C@@H](C)C[C@@H](C)CC)[C@H]2O)[C@@H](OC(C)=O)[C@H](C)Cc1ccccc1	> 500	–
C=C(CC[C@]12O[C@H](C(=O)O)[C@@](O)(C(=O)OC)[C@](C(=O)OC)(O1)[C@H](OC(=O)/C=C/[C@@H](C)C[C@@H](C)CC)[C@H]2O)[C@@H](OC(C)=O)[C@H](C)Cc1ccccc1	> 500	–
C=C(CC[C@]12O[C@H](C(=O)OC)[C@@](O)(C(=O)OC)[C@](C(=O)O)(O1)[C@H](OC(=O)/C=C/[C@@H](C)C[C@@H](C)CC)[C@H]2O)[C@@H](OC(C)=O)[C@H](C)Cc1ccccc1	134	–
C=C(CC[C@]12O[C@H](C(=O)OC)[C@@](O)(C(=O)O)[C@](C(=O)O)(O1)[C@H](O)[C@H]2O)[C@@H](OC(C)=O)[C@H](C)Cc1ccccc1	220	–
C=C(CC[C@]12O[C@H](C(=O)OC)[C@@](O)(C(=O)OC)[C@](C(=O)OC)(O1)[C@H](OC(=O)/C=C/[C@@H](C)C[C@@H](C)CC)[C@H]2O)[C@@H](OC(C)=O)[C@H](C)Cc1ccccc1	> 500	–
C=C(CC[C@]12O[C@H](C(=O)OC)[C@@](O)(C(=O)O)[C@](C(=O)OC)(O1)[C@H](OC(=O)/C=C/[C@@H](C)C[C@@H](C)CC)[C@H]2O)[C@@H](OC(C)=O)[C@H](C)Cc1ccccc1	> 500	–
C=C(CC[C@]12O[C@H](C(=O)O)[C@@](O)(C(=O)O)[C@](C(=O)OC)(O1)[C@H](O)[C@H]2O)[C@@H](OC(C)=O)[C@H](C)Cc1ccccc1	> 500	–
C=C(CC[C@]12O[C@H](C(=O)O)[C@@](O)(C(=O)O)[C@](C(=O)O)(O1)[C@H](OC(=O)/C=C/[C@@H](C)C[C@@H](C)CC)[C@H]2O)[C@@H](OC(C)=O)[C@H](C)Cc1ccccc1 [ZARAGOZIC ACIDS A]	–	39

Reference: ChEMBL document CHEMBL1127149, “The squalestatins: potent inhibitors of squalene synthase. The role of the tricarboxylic acid moiety” (Bioorg Med Chem Lett, 1993)
